Source: US20230346744A1, “SULFUR-CONTAINING COMPOUND USEFUL FOR TREATING OR PREVENTING PRESBYOPIA” (SANTEN PHARMACEUTICAL CO., LTD., priority 2020, published 2023)

Assays:
Format in all cases: in vivo
[1] = tested on: C57BL/6J mice; assay: Pharmacological Test-1: 3 times-daily instillation for 2 weeks, lens elasticity; conditions: 3 times per day for 14 days; for Lens elasticity improvement: 0.03% (w/v) sample, 2.5 μL/eye, 9-month-old mice, vs vehicle control; for Lens elasticity effect compared with the vehicle control group (in words): 0.03% sample group
Experimental: The effect of 3 times-daily instillation of Compound 1 for 2 weeks on the lens elasticity was examined. The tests were conducted with reference to the methods described in InvestOphthalmol Vis Sci, 57, 2851-2863, 2016.
A vehicle comprising 1.0% (w/v) of polyoxyl 35 castor oil (hereinafter also referred to as “CO35”), 0.1% (w/v) of ethyl pyruvate, 0.269% (w/v) of sodium dihydrogenphosphate monohydrate (NaH2 PO4.H2O), 0.433% (w/v) of disodium hydrogenphosphate (Na2 HPO4), 0.2% (w/v) of hydroxypropyl methylcellulose, 0.5% (w/v) of NaCl, and purified water (appropriate amount) was prepared.
Compound 1 was stirred with the addition of the vehicle to give a 0.03% (w/v) solution. After preparation, it was refrigerated.
EVO6 was stirred with the addition of the vehicle to give a 0.03% (w/v) solution, which was for comparison in the test for Compound 1. After preparation, it was refrigerated.
1) Each test sample (2.5 μL/eye) was instilled into both eyes of 9-month-old C57BL/6J mice with a Pipetman 3 times per day (around 9:00, 13:00 and 17:00) for 14 days.
(§1) 2) After the final instillation, the mice were euthanized by carbon dioxide inhalation, and then the eyeballs were extracted and rinsed with Hank's balanced salt solution (HBSS).
(§2) 3) The sclera near the optic nerve was cut with a razor, the lens was removed through the incision, and the removed lens was immersed in HBSS.
(§3) 4) The lens was placed on a glass slide, and an all-in-one fluorescence microscope BZ-9000 (Keyence) was used to capture an image of the lens (Image a).
(§4) 5) Next, one cover glass (Corning(registered trade mark) 22×22 mm Square) was placed on the lens, and an image in which the thickness of the lens changed due to the weight was similarly captured (Image b).
6) A change in the lens diameter was calculated from the following Equation 1 wherein the lens diameter of Image a is subtracted from the lens diameter of Image b. Then, the lens elasticity improvement of each sample group compared with the vehicle control group was calculated from Equation 2 described below. The mean value of the vehicle control group was based on 8 eyes, and the mean value of each of the sample groups of Compound 1 and EVO6 was based on 10 eyes.
(§5) Change in lens diameter=Lens diameter in Image b of each test sample−Lens diameter in Image a of each test sample Equation 1
(§6) Lens elasticity improvement of each sample group=Mean change in lens diameter of each Test sample group−Mean change in lens diameter of Vehicle control group Equation 2

[2] = tested on: C57BL/6J mice; assay: Pharmacological Test-2: once-daily instillation of Compound 1 for 2 weeks, lens elasticity; conditions: once per day for 14 days; for Lens elasticity improvement: 2.5 μL/eye, 9-month-old mice, vs vehicle control
Experimental: The effect of once-daily instillation of Compound 1 for 2 weeks on the lens elasticity was examined.
(§7) A vehicle comprising 1.0% (w/v) of CO35, 0.1% (w/v) of ethyl pyruvate, 0.269% (w/v) of sodium dihydrogenphosphate monohydrate (NaH2 PO4.H2O), 0.433% (w/v) of disodium hydrogenphosphate (Na2HPO4), 0.2% (w/v) of hydroxypropyl methylcellulose, 0.5% (w/v) of NaCl, and purified water (appropriate amount) was prepared.
To Compound 1 was added the vehicle to give a 0.1% (w/v) solution. The resulting 0.1% (w/v) solution was diluted with the vehicle to give a 0.03% (w/v) solution. Further, the resulting 0.03% (w/v) solution was diluted with the vehicle to give a 0.01% (w/v) solution. After preparation, all were frozen.
1) Each test sample (2.5 μL/eye) was instilled into both eyes of 9-month-old C57BL/6J mice with a Pipetman once per day (around 9:00) for 14 days.
as §1, §2, §3, §4
6) A change in the lens diameter was calculated from Equation 1 wherein the lens diameter of Image a is subtracted from the lens diameter of Image b, as described below. Then, the lens elasticity improvement of each sample group compared with the vehicle control group was calculated from Equation 2 described below. The mean value of the vehicle control group was based on 9 eyes, and the mean value of each of the sample groups of Compound 1 was based on 10 eyes.
as §5, §6

[3] = tested on: C57BL/6J mice; assay: Pharmacological Test-3: once-daily instillation of Compounds 1, 2 and 3 for 2 weeks, lens elasticity; conditions: 0.03% sample, 2.5 μL/eye, once per day for 14 days, 8-month-old mice, vs vehicle control
Experimental: The effect of once-daily instillation of each of Compounds 1, 2 and 3 for 2 weeks on the lens elasticity was examined.
as §7
Each of Compounds 1 and 2 was stirred with the addition of the vehicle to give a 0.1% (w/v) solution.
To Compound 3 was added the vehicle to give a 0.1% (w/v) suspension. The resulting 0.1% (w/v) suspension was diluted with the vehicle to give a 0.03% (w/v) solution. Further, the resulting 0.03% (w/v) solution was diluted with the vehicle to give a 0.01% (w/v) solution.
After preparation, all were frozen.
1) Each test sample (2.5 μL/eye) was instilled into both eyes of 8-month-old C57BL/6J mice with a Pipetman once per day (around 9:00) for 14 days.
as §1, §2, §3, §4
6) A change in the lens diameter was calculated from Equation 1 wherein the lens diameter of Image a is subtracted from the lens diameter of Image b, as described below. Then, the lens elasticity improvement of each sample group compared with the vehicle control group was calculated from Equation 2 described below. The mean value of each group was based on 10 eyes.
as §5, §6

[4] = tested on: Japanese White rabbit; assay: Ocular irritation test-1 (McDonald-Shadduck method); parameters: key to Irritation Score of anterior segment of the eye: Discharge / Irritation Score of anterior segment of the eye: Anterior chamber flare / Irritation Score of anterior segment of the eye: Light reflex / Irritation Score of anterior segment of the eye: Iris / Irritation Score of anterior segment of the eye: Corneal opacity / Irritation Score of anterior segment of the eye: Corneal angiogenesis / Irritation Score of anterior segment of the eye: Corneal epithelial disorder / Irritation Score of anterior segment of the eye: Conjunctival hyperemia / Irritation Score of anterior segment of the eye: Conjunctival edema: —: No noteworthy findings; conditions: 50 μL/eye, 10 times at 30-minute intervals
Experimental: A vehicle eye drop and a 0.03% (w/v) Compound 1 eye drop were prepared in the same manner as Preparation of Test sample in Pharmacological test-1.
The vehicle eye drop, and the 0.03% (w/v) Compound 1 eye drop were each instilled into one eye of a Japanese White rabbit at a dose volume of 50 μL/eye with pipette 10 times at 30-minute intervals. One hour after the final instillation, ocular irritation of anterior segment of the eye was evaluated using a slit lamp according to the McDonald-Shadduck method.
Observation for corneal epithelial disorder was conducted 3 hours after the final instillation.
The ocular irritation of anterior segment of the eye was scored according to the following criteria: • 1: slight; +2: moderate; +3: severe

[5] = tested on: C57BL/6J mice; assay: Reference Pharmacological Test 1: effect of EV06 instillation on lens elasticity; conditions: 3 times per day for 15 to 17 days; for Lens elasticity improvement: 2.5 μL/eye, 8-month-old mice, vs vehicle control
Experimental: The effect of lipoic acid choline ester (EV06) on the lens elasticity was examined. The tests were conducted with reference to the methods described in InvestOphthalmol Vis Sci, 57, 2851-2863, 2016. EV06 is a compound represented by the following formula: A vehicle comprising 0.1% (w/v) of ethyl pyruvate, 0.269% (w/v) of sodium dihydrogenphosphate monohydrate (NaH2PO4.H2O), 0.433% (w/v) of disodium hydrogenphosphate (Na2HPO4), 0.2% (w/v) of hydroxypropyl methylcellulose, 0.5% (w/v) of NaCl, and purified water (appropriate amount) was prepared. EVO6 was sonicated with the addition of the vehicle to prepare a 5% (w/v) suspension. The resulting 5% (w/v) suspension was diluted with the vehicle to prepare a 1.5% (w/v) solution. Further, the resulting 1.5% (w/v) solution was diluted with the vehicle to prepare a 0.5% (w/v) solution. The total amount of each sample to be used in one day was prepared before use. 1) Each test sample (2.5 μL/eye) was instilled into the right eye of 8-month-old C57BL/6J mice with a Pipetman 3 times per day (around 9:00, 13:00 and 17:00) for 15 to 17 days. 2) After the final instillation, the mice were euthanized by carbon dioxide inhalation, and then the eyeballs were extracted and rinsed with Hank's balanced salt solution (HBSS). 3) The sclera near the optic nerve was cut with a razor, the lens was removed through the incision, and the removed lens was immersed in HBSS. 4) The lens was placed on a glass slide, and an all-in-one fluorescence microscope BZ-9000 (Keyence) was used to capture an image of the lens (Image a). 5) Next, one cover glass (Corning^(registered trade mark) 22×22 mm Square) was placed on the lens, and an image in which the thickness of the lens changed due to the weight was similarly captured (Image b). 6) A change in the lens diameter was calculated from Equation 1 wherein the lens diameter of Image a is subtracted from the lens diameter of Image b, as described below. Then, the lens elasticity improvement of each sample group compared with the vehicle control group was calculated from Equation 2 described below. The mean of the vehicle control group was based on 6 eyes and the mean of each EV06 sample group was based on 12 eyes. Change in lens diameter=Lens diameter in Image b of each test sample−Lens diameter in Image a of each test sample Equation 1 Lens elasticity improvement of each sample group=Mean change in lens diameter of each EV06 sample group−Mean change in lens diameter of Vehicle control group equation 2

[6] = tested on: C57BL/6J mice; assay: Pharmacological Test-5: once-daily instillation of Compounds 5, 6 and 7 for 2 weeks, lens elasticity; conditions: once per day for 14 days
Experimental: The effect of once-daily instillation of each of Compounds 5, 6, and 7 for 2 weeks on the lens elasticity was examined.
as §7
Compound 5 was stirred with the addition of the vehicle to give a 0.1% (w/v) suspension. The resulting 0.1% (w/v) suspension was diluted with the vehicle to give a 0.03% (w/v) suspension.
Compound 6 was stirred with the addition of the vehicle to give a 0.1% (w/v) suspension. The resulting 0.1% (w/v) a suspension was diluted with the vehicle to give a 0.03% (w/v) suspension.
Compound 7 was stirred with the addition of the vehicle to give a 0.1% (w/v) suspension.
After preparation, all were refrigerated.
EVO6 was stirred with the addition of the vehicle to give a 0.03% (w/v) solution, which was for comparison in the test for Compounds 5, 6 and 7. After preparation, it was refrigerated.
1) Each test sample (2.5 μL/eye) was instilled into both eyes of 8-month-old C57BL/6J mice with a Pipetman once per day (around 13:30) for 14 days.
as §1, §2, §3, §4
6) A change in the lens diameter was calculated from Equation 1 wherein the lens diameter of Image a is subtracted from the lens diameter of Image b, as described below. Then, the lens elasticity improvement of each sample group compared with the vehicle control group was calculated from Equation 2 described below. The mean value of each group was based on 8 eyes.
as §5, §6

[7] = 0.03% eye drop, 1 hour after the final instillation

SMILES: OCCCCC[C@@H](S)CCS [Compound 1, (R)-6,8-Dimercaptooctan-1-ol]
- Lens elasticity improvement [1]: 53.8 μm
- Lens elasticity effect compared with the vehicle control group (in words) [1]: potent elasticity improving effect
- Lens elasticity improvement ([2]; 0.01% (w/v) sample): 17.5 μm
- Lens elasticity improvement ([2]; 0.03% (w/v) sample): 53.0 μm
- Lens elasticity improvement ([2]; 0.1% (w/v) sample): 63.3 μm
- Lens elasticity effect (in words) ([2]; all of the concentrations of 0.01%, 0.03% and 0.1%): showed an elasticity improving effect
- Lens elasticity improvement [3]: 55.5 μm
- Irritation in anterior segment of the eye (in words) ([4]; 0.03% (w/v) eye drop): No irritation was observed
- Irritation Score of anterior segment of the eye: Anterior chamber flare [4, 7]: —
- Irritation Score of anterior segment of the eye: Conjunctival edema [4, 7]: —
- Irritation Score of anterior segment of the eye: Corneal angiogenesis [4, 7]: —
- Irritation Score of anterior segment of the eye: Corneal opacity [4, 7]: —
- Irritation Score of anterior segment of the eye: Discharge [4, 7]: —
- Irritation Score of anterior segment of the eye: Iris [4, 7]: —
- Irritation Score of anterior segment of the eye: Light reflex [4, 7]: —
- Irritation Score of anterior segment of the eye: Conjunctival hyperemia ([4]; 0.03% eye drop, 1 hour after the final instillation, scale +1 slight, +2 moderate, +3 severe): —
- Irritation Score of anterior segment of the eye: Corneal epithelial disorder ([4]; 0.03% eye drop, 3 hours after the final instillation): —

SMILES: C[N+](C)(C)CCOC(=O)CCCC[C@@H]1CCSS1.[Cl-] [EV06, lipoic acid choline ester, reference compound]
- Lens elasticity improvement ([5]; 0.5% (w/v) sample): 28.8 μm
- Lens elasticity effect compared with the vehicle control group (in words) ([5]; 0.5%, 1.5% and 5% groups): elasticity improving effect
- Lens elasticity improvement ([5]; 1.5% (w/v) sample): 47.3 μm
- Lens elasticity improvement ([5]; 5% (w/v) sample): 48.7 μm
- Lens elasticity improvement [1]: 3.6 μm
- Lens elasticity effect compared with the vehicle control group (in words) [1]: no improvement in lens elasticity
- Lens elasticity effect (in words) ([6]; 0.03% sample group): no elasticity improving effect
- Lens elasticity improvement ([6]; 0.03% sample, 2.5 μL/eye, 8-month-old mice, vs vehicle control): 3.1 μm
